Data as given in PubChem BioAssay (NCI).
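Tested at 5 concentrations; 48 h exposure; 96-well plates; endpoints linearly interpolated, else capped at highest concentration. GI50: concentration for 50% inhibition of growth. TGI denotes the concentration required for complete inhibition of growth.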

How the values were obtained:
Assay in all cases: growth of human tumour cells (NCI), 48 h
[1] = test system: 786-0 renal
[2] = test system: M14 melanoma
[3] = test system: NCI-H460 lung
[4] = test system: OVCAR-8 ovarian
[5] = test system: SF-268 CNS
[6] = test system: SF-295 CNS
[7] = test system: SNB-75 CNS
[8] = test system: UO-31 renal
[9] = test system: MDA-MB-435
[10] = test system: A498 renal

Row | Structure (SMILES) | TGI [1] [µM] | TGI [2] [µM] | TGI [3] [µM] | TGI [4] [µM] | TGI [5] [µM] | TGI [6] [µM] | TGI [7] [µM] | TGI [8] [µM] | TGI [9] [µM] | TGI [10] [µM] | GI50 [1] [µM] | GI50 [10] [µM] | GI50 [2] [µM] | GI50 [3] [µM] | GI50 [4] [µM] | GI50 [6] [µM] | GI50 [7] [µM] | GI50 [8] [µM]
1 | CC1=C2CCCC2=C/C(=N/Nc2ccc([N+](=O)[O-])cc2[N+](=O)[O-])CC1 | > 100 | > 100 | > 100 | > 100 | > 100 | > 100 | > 100 | > 100 | – | – | – | – | – | – | – | – | – | –
2 | CCSc1[nH]c(Nc2nc(-c3ccccc3)n(-c3ccccc3)n2)c(C(N)=O)c1C(N)=O | > 10 | > 10 | – | > 10 | > 10 | > 10 | > 10 | – | > 10 | – | – | – | – | – | – | – | – | –
3 | O=c1[nH]cc(COCCO)c(=O)[nH]1 | > 100 | > 100 | > 100 | > 100 | > 100 | > 100 | > 100 | > 100 | – | > 100 | – | – | – | – | – | – | – | –
4 | O=C1c2ccccc2C2(O)c3cc4ccccc4cc3OC12O (stereo unspecified) | > 100 | > 100 | > 100 | > 100 | > 100 | > 100 | > 100 | – | – | > 100 | – | – | – | – | – | – | – | –
5 | O=C(NCCCCN=c1cccccc1NCCCCNC(=O)OCc1ccccc1)OCc1ccccc1 | 31.8 | 29.4 | 26.4 | 47.7 | 63.8 | 26.9 | 39.6 | 21.4 | – | – | – | – | – | – | – | – | – | –
6 | O=C1CC(C[C@H](O)C2CCCCC2O)CC(=O)N1Cc1ccccc1 (stereo partly specified) | > 100 | > 100 | > 100 | > 100 | > 100 | > 100 | > 100 | > 100 | – | > 100 | – | – | – | – | – | – | – | –
7 | CCOc1ccc2c(c1)[n+]([O-])c(-c1ccccc1Cl)c(N)[n+]2[O-] | > 100 | > 100 | > 100 | > 100 | > 100 | > 100 | > 100 | > 100 | – | > 100 | – | – | – | – | – | – | – | –
8 | O=C(O)CSc1n[nH]c(-c2ccccc2)n1 | > 100 | > 100 | > 100 | > 100 | > 100 | > 100 | > 100 | > 100 | – | > 100 | – | – | – | – | – | – | – | –
9 | CCOc1ccc(N2C(=O)/C(=C/c3ccc(N(CCC#N)CCC#N)cc3)N=C2c2cc([N+](=O)[O-])ccc2Cl)cc1 | 26.4 | 61.3 | 55.7 | > 100 | > 100 | 83.7 | > 100 | > 100 | – | > 100 | – | – | – | – | – | – | – | –
10 | COc1ccc(/C(=N\NC(=O)C(N)=O)C(c2ccc(OC)cc2)C2(O)C(=O)Nc3c(Cl)cccc32)cc1 (stereo unspecified) | > 100 | > 100 | > 100 | > 100 | > 100 | > 100 | > 100 | > 100 | – | – | – | – | – | – | – | – | – | –
11 | CCOC(=O)NC(=O)c1cn(CCOC(=O)NCCCCCCNC(=O)OCCn2cc(C(=O)NC(=O)OCC)c(=O)[nH]c2=O)c(=O)[nH]c1=O | > 100 | > 100 | > 100 | > 100 | > 100 | > 100 | > 100 | > 100 | – | > 100 | – | – | – | – | – | – | – | –
12 | CCOC(=O)C(C)(C)Oc1ccc2c(C)c(-c3ccc(Cl)cc3)c(=O)oc2c1 | > 100 | > 100 | > 100 | > 100 | > 100 | > 100 | > 100 | > 100 | – | > 100 | – | – | – | – | – | – | – | –
13 | CCC1C2C=CC(CC2)N1S(=O)(=O)c1ccc(C)cc1 (stereo unspecified) | > 100 | > 100 | 52.1 | – | 67.3 | > 100 | – | 39.2 | – | > 100 | – | – | – | – | – | – | – | –
14 | O=C(Nc1cc(Cl)ccc1Cl)c1cc2cccc(Cl)c2oc1=O | > 100 | > 100 | > 100 | > 100 | – | > 100 | > 100 | – | – | – | – | – | – | – | – | – | – | –
15 | CC(=O)n1c2c(c(=O)n1-c1ccccc1)S(=O)CCC2 (stereo unspecified) | > 78.6 | > 100 | > 100 | > 100 | > 100 | > 100 | > 100 | > 100 | – | > 100 | – | – | – | – | – | – | – | –
16 | Cc1ccc(Cn2c(C)nc3c2C(=O)c2ccccc2C3=O)cc1 | 19.7 | > 100 | 3.13 | 28 | 36.9 | 42.9 | 36.3 | > 100 | – | – | – | – | – | – | – | – | – | –
17 | O=C(NC(=O)c1cn(CCNCCO)c(=O)[nH]c1=O)OCc1ccccc1 | > 100 | > 100 | > 100 | > 100 | > 100 | > 100 | > 100 | – | – | – | – | – | – | – | – | – | – | –

Row | Structure (SMILES) | TGI [1] [µM] | TGI [2] [µM] | TGI [3] [µM] | TGI [4] [µM] | TGI [5] [µM] | TGI [6] [µM] | TGI [7] [µM] | TGI [8] [µM] | TGI [9] [µM] | TGI [10] [µM] | GI50 [1] [µM] | GI50 [10] [µM] | GI50 [2] [µM] | GI50 [3] [µM] | GI50 [4] [µM] | GI50 [6] [µM] | GI50 [7] [µM] | GI50 [8] [µM]
18 | O=C(N/N=C1/C(=O)N(c2ccc(Cl)cc2Cl)C(=O)C(=O)C1c1nc2ccccc2o1)c1ccccc1O (stereo unspecified) | > 100 | 76.2 | > 100 | > 100 | > 100 | – | > 100 | – | – | 88.2 | – | – | – | – | – | – | – | –
19 | CCCCCCC[CH2][Sn]1([CH2]CCCCCCC)[O]C(=O)c2cccnc2[S]1 | > 100 | > 100 | > 100 | > 100 | – | > 100 | > 100 | > 100 | – | > 100 | > 100 | > 100 | > 100 | > 100 | > 100 | > 100 | > 100 | > 100
20 | O=c1cc(-c2ccccc2)[nH]c2c(S)cccc12 | > 100 | > 100 | > 100 | > 100 | > 100 | > 100 | > 100 | – | > 100 | – | – | – | – | – | – | – | – | –
21 | COc1ccc(C(O)c2nccn2C)c(OC)c1 (stereo unspecified) | > 100 | > 100 | > 100 | > 100 | > 100 | > 100 | > 100 | > 100 | – | – | – | – | – | – | – | – | – | –
22 | COC(=O)[C@]1(C)CCCC2(C)C1CC[C@H]1C=C(C)[C@H]3CCC12C3 (stereo partly specified) | > 100 | > 100 | > 100 | > 100 | > 100 | > 100 | > 100 | > 100 | – | – | – | – | – | – | – | – | – | –
23 | c1ccc(SC2CCSc3ccccc3C2Sc2ccccc2)cc1 (stereo unspecified) | > 100 | > 100 | > 100 | > 100 | > 100 | > 100 | > 100 | > 100 | – | > 100 | – | – | – | – | – | – | – | –
24 | CCc1c(OC(C)=O)c2c(NC3OC(COC(C)=O)C(OC(C)=O)C(OC(C)=O)C3OC(C)=O)nc(OC)nc2oc1=O (stereo unspecified) | > 100 | > 100 | > 100 | > 100 | – | > 100 | > 100 | > 100 | – | > 100 | – | – | – | – | – | – | – | –
25 | O=C(CSc1nnc(-c2ccc(N=Cc3ccc(Cl)cc3)cc2)o1)Nc1ccc(Cl)cc1 | > 100 | > 100 | > 100 | > 100 | > 100 | > 100 | > 100 | > 100 | – | – | – | – | – | – | – | – | – | –
26 | Cc1ccc(S(=O)(=O)N/N=C/c2oc(-c3ccncc3)c(-c3ccncc3)c2[N+](=O)[O-])cc1 | > 100 | > 100 | > 100 | > 100 | > 100 | > 100 | > 100 | > 100 | – | > 100 | – | – | – | – | – | – | – | –
27 | COC1[C@@H](OC(C)=O)[C@@H](NC(=O)C(Cl)(Cl)Cl)C(I)[C@@H](N2C(=O)c3ccccc3C2=O)[C@H]1OC (stereo partly specified) | > 100 | > 100 | > 100 | > 100 | > 100 | > 100 | > 100 | – | – | > 100 | – | – | – | – | – | – | – | –
28 | O=C(O)[C@H](NS(=O)(=O)c1ccc2ccccc2c1)c1ccccc1 | > 100 | > 100 | > 100 | – | > 100 | – | > 100 | > 100 | – | > 100 | – | – | – | – | – | – | – | –
29 | Cc1ccc(NC(=O)C2C(=O)N(c3ccc(C)c(C)c3)C(=O)C2N=N)cc1C (stereo unspecified) | > 100 | > 100 | > 100 | > 100 | > 100 | > 100 | > 100 | > 100 | – | > 100 | – | – | – | – | – | – | – | –
30 | CCc1cccc(C)c1NC(=O)C(=O)Cc1nc2ccccc2o1 | > 100 | > 100 | > 100 | > 100 | > 100 | > 100 | – | > 100 | – | > 100 | – | – | – | – | – | – | – | –
31 | CCOC(=O)C1(c2ccccc2)CCC(=O)CC1 | > 100 | > 100 | > 100 | > 100 | > 100 | > 100 | > 100 | > 100 | – | > 100 | – | – | – | – | – | – | – | –
32 | COc1ccc(-c2cc(-c3ccccc3)c(C#N)c(=O)n2C2OC(CO)C(O)C(O)C2O)cc1 (stereo unspecified) | > 100 | > 100 | > 100 | > 100 | > 100 | > 100 | – | > 100 | – | > 100 | – | – | – | – | – | – | – | –
33 | C[C@H]1NC(=O)C2CCCCN2C(=O)CN(C)C(=O)CNC(=O)C2CCCCN2C(=O)[C@@H](NC(=O)c2nc3ccccc3cc2O)[C@@H](C)NC(=O)C2CCCCN2C(=O)CN(C)C(=O)CNC(=O)[C@@H]2CCCCN2C(=O)C1NC(=O)c1nc2ccccc2cc1O (stereo partly specified) | 31.8 | 1.27 | > 100 | > 100 | 0.934 | 4.8 | 0.39 | 0.984 | – | – | – | – | – | – | – | – | – | –
34 | COc1ccc(NC(=O)/C(N=O)=C(/C)O)cc1 | > 100 | > 100 | 53.5 | > 100 | > 100 | > 100 | > 100 | > 100 | – | > 100 | – | – | – | – | – | – | – | –
